Source: US12441733B2, “Substituted 2,4-dioxotetrahydropyrimidines as intermediates in the synthesis of bruton's tyrosine kinase inhibitors” (Novartis AG, priority 2018, dated 2025)

Molecular target: T1, BTK(C481S)-GFP (Homo sapiens, UniProt Q06187+Q96SW2, C481S)
T1 construct: CHYSEL (cis-acting hydrolase element, 2A) remnant after GFP; mCherry is split off as a separate protein (C); expressed in transfected cells; host or cells: TMD8 cells, lentiviral transduction with pLenti6-BTK(C481S)-GFP-CHYSEL-mCherry
T1 sequence (Q06187 whole entry C481S): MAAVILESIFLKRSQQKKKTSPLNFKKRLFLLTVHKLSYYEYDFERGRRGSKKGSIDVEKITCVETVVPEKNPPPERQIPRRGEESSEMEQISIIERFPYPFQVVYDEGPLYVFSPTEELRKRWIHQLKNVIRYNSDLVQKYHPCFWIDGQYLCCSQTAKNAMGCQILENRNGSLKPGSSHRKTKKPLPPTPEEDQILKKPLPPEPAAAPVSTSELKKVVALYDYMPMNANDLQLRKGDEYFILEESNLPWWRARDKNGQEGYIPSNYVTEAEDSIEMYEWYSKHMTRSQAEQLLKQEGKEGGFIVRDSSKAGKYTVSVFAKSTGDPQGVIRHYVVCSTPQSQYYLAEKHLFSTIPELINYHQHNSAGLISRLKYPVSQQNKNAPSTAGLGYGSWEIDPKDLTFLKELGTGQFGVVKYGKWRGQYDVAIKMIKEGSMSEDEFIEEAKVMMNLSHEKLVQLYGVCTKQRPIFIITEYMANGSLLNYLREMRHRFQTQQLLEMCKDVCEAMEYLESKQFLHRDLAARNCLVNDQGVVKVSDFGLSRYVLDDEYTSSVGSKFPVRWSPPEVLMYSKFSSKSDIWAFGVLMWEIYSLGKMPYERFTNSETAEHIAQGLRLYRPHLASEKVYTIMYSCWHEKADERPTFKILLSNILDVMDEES
T1 sequence (Q96SW2 whole entry): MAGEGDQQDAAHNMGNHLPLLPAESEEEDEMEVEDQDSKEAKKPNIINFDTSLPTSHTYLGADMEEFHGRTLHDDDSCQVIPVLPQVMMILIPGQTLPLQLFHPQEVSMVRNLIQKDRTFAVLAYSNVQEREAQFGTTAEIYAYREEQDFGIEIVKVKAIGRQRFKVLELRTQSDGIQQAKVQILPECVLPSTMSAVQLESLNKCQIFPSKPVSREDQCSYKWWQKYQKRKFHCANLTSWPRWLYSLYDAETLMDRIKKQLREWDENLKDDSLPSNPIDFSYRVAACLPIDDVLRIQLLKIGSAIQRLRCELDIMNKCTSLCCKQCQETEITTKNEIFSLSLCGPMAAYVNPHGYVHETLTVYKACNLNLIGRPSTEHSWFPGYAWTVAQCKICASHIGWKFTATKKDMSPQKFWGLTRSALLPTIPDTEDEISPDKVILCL
T1 sequence (Q16531 whole entry partner): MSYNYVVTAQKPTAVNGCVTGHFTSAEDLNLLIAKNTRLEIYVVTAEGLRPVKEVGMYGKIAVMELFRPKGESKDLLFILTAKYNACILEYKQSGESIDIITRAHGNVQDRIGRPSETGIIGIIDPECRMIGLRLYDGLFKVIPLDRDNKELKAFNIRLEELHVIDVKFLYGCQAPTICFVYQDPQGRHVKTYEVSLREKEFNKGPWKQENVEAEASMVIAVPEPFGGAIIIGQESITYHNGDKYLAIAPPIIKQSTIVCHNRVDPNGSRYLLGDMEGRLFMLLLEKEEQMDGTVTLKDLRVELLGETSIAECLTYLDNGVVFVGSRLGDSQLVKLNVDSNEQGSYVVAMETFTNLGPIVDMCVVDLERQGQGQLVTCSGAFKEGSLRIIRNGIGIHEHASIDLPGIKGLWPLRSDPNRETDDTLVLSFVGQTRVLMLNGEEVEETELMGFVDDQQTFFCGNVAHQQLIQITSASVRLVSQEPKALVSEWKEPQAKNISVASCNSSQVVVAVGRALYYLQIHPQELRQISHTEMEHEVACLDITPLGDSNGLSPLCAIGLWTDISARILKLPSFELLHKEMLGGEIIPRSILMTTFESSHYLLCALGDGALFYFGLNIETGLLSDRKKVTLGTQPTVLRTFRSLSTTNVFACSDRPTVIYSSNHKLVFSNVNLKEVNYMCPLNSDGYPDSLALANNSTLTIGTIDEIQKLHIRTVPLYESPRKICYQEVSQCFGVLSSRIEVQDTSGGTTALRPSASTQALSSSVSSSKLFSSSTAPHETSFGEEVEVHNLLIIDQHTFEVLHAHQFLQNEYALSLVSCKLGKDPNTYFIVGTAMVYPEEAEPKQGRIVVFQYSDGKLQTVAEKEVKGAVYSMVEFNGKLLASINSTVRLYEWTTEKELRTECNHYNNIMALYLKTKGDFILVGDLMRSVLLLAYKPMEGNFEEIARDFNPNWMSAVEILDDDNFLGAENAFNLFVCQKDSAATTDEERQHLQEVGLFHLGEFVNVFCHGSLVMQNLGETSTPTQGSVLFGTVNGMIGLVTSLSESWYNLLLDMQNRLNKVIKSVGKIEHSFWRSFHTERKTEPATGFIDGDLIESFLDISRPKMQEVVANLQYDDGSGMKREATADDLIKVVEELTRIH
Assay: BTK(C481S)-GFP protein abundance flow cytometry assay in TMD8 cells
Type: cell-based
Conditions: TMD8 cells expressing BTK(C481S)-GFP; for DC50: GFP signal by flow cytometry; for BTK (C481S) Amax: % protein remaining at maximum degradation
Description: Compounds of the invention were tested in the following cellular assays. The terms in Table 2 are defined as follows: DC50 refers to the concentration at which 50% maximal degradation was observed; deg Amax is the extent of degradation and the value refers to the % protein remaining at the concentration at which maximum degradation is seen; ProI GI50 refers to the proliferation data and defines the concentration at which 50% growth inhibition was observed compared to the vehicle treated control at the end of the incubation time. TMD8 cells are BTK dependent and OCI-LY3 cells are BTK independent.
Btk(C481S)-GFP Protein Abundance Flow Cytometry Assay in TMD8 Cells:
Degradation of BTK(C481S) was measured in TMD8 cells expressing BTK(C481S)-GFP and mCherry from a stably integrated second generation bicistronic BTK(C481S)-GFP-CHYSEL-mCherry construct. Reduction of the […] measured by flow cytometry served as readout for BTK(C481S) degradation after degrader treatment.
Cloning of the pLenti6-BTK(C481)-GFP-CHYSEL-mCherry Sensor Vectors
The BTK(C481 S) protein abundance sensor is based on a second generation bicistronic construct, where the 2 reading frames BTK(C481S) and mCherry control are separated by a cis-acting hydrolase element (see: Lo et al., 2015 Cell Reports 13, 2634), replacing the Ires from the first generation vector described before.
The bicistronic BTK(C481S)-GFP-CHYSEL-mCherry construct is based on a pLenti6-DEST vector backbone where a GFP-CHYSEL-mCherry cassette was synthesized and inserted downstream of the DEST cassette by Gibson assembly resulting in the new gateway compatible vector pLenti6-DEST-GFP-CHYSEL-mCherry to allow Gateway cloning with pENTR221-BTK(C48S)(STOP-Leu) to obtain the final sensor construct pLenti6-BTK(C481S)-GFP-CHYSEL-mCherry. The pENTR221-BTK(C481S)(STOP-Leu) was generated by mutating wild-type BTK to BTK(C481S) with a mutagenesis reaction on pENTR221-BTK (STOP-Leu) with the following primers (BTK C481S Quikchange fw, gagtacatggccaatggctCcctcctgaactacctgagg (SEQ ID NO: 7); BTK C481S Quikchange REVC, cctcaggtagttcaggaggGagccattggccatgtactc (SEQ ID NO: 8)) using the QuikChange Lightning mutagenesis kit (Agilent Technologies #210518) performed according to the manufacturer's manual, resulting in pENTR221-BTK(C481S)(STOP-Leu).
Sequence of the synthesized construct (Xho1 sites are shown in bold, mCherry-ORF is shown in small letters):
Engineering of Stably Expressing TMD8 BTK(C481 S-GFP-CHYSEL-mCherry Sensor Cells
TMD8 BTK(C481S)-GFP-CHYSEL-mCherry sensor cells were generated by lentiviral vector transduction using the pLenti6-BTK(C4818)-GFP-CHYSEL-mCherry sensor construct described before. Lentiviral particles were produced in HEK293FT cells (Invitrogen R70007) by co-transfection of 500 ng pLenti6-BTK-GFP-Ires-RFP or pLenti6-IKZF3-GFP-Ires-RFP, 500 ng delta8.71 and 200 ng pVSVG diluted in 100 μl OptiMEM serum free medium (Invitrogen #11058-021) that was mixed after 5 min preincubation with 3 μl of Lipofectamine2000 (Invitrogen #11668-019) in 97 μl OptiMEM serum free medium. The mix was incubated for another 20 min at RT and then added to 1 ml of a freshly prepared suspension of HEK293FT cells in a well of a 6-well plate (concentration 1.2×10^6 cells/ml). 1 day after transfection, the medium was replaced with 1.5 ml of complete growth medium (DMEM high Glucose+10% FCS+1% L-Glutamine+1% NEAA+1% NaPyr.). 48 h post transfection supernatant containing viral transducing particles was collected and frozen at −80° C.
Two days before transduction with viral particles 1×10^5 HEK293A cells (Invitrogen R7057) were seeded in 2 ml growth medium in a well of a 6-well plate. Infection was performed with 90 μl of collected supernatant containing viral transducing particles in 1 ml medium including 8 μg/ml polybrene. 24 h post infection, stably transfected cells were selected with blasticidin at a concentration of 8 μg/ml.

Row | DC50 [nM] | BTK (C481S) Amax [%] | Compound
1 | 1.92 | 4.5 | COc1ccc(C(=O)N2CCC3(CCN(Cc4ccc(-c5cc6c(-c7cc(F)cc(NC(=O)c8ccc(C(C)(C)O)cc8F)c7C)ncnc6[nH]5)cc4)CC3)CC2)cc1N1CCC(=O)NC1=O [Compound 9, N-(3-(6-(4-((9-(3-(2,4-Dioxotetrahydropyrimidin-1(2H)-yl)-4-methoxybenzoyl)-3,9-diazaspiro[5.5]undecan-3-yl)methyl)phenyl)-7H-pyrrolo[2.3-d]pyrimidin-4-yl)-5-fluoro-2-methylphenyl)-2-fluoro-4-(2-hydroxypropan-2-yl)benzamide]
2 | 1.58 | 2.9 | Cc1c(NC(=O)c2ccc(C(C)(C)O)cc2F)cc(F)cc1-c1ncnc2[nH]c(-c3ccc(CCN4CCC5(CC4)CCN(C(=O)c4cccc(N6CCC(=O)NC6=O)c4)CC5)cc3)cc12 [Compound 12, N-(3-(6-(4-(2-(9-(3-(2,4-Dioxotetrahydropyrimidin-1(2H)-yl)benzoyl)-3,9-diazaspiro[5,5]undecan-3-yl)ethyl)phenyl)-7H-pyrrolo[2,3-d]pyrimidin-4-yl)-5-fluoro-2-methylphenyl)-2-fluoro-4-(2-hydroxypropan-2-yl)benzamide]
3 | 2.08 | 2.2 | CCOc1ccc(C(=O)N2CCC3(CCN(Cc4ccc(-c5cc6c(-c7cc(F)cc(NC(=O)c8ccc(C(C)(C)O)cc8F)c7C)ncnc6[nH]5)cc4)CC3)CC2)cc1N1CCC(=O)NC1=O [Compound 4, N-(3-(6-(4-((9-(3-(2,4-Dioxotetrahydropyrimidin-1(2H)-yl)-4-ethoxybenzoyl)-3,9-diazaspiro[5.5]undecan-3-yl)methyl)phenyl)-7H-pyrrolo[2,3-d]pyrimidin-4-yl)-5-fluoro-2-methylphenyl)-2-fluoro-4-(2-hydroxypropan-2-yl)benzamide]
4 | 8.18 | 3.1 | Cc1ccc(C(=O)N(C)CCCCCNCc2ccc(-c3cc4c(-c5cc(F)cc(NC(=O)c6ccc(C(C)(C)O)cc6F)c5C)ncnc4[nH]3)cc2)cc1N1CCC(=O)NC1=O [Compound 30, 3-(2,4-Dioxotetrahydropyrimidin-1(2H)-yl)-N-(5-((4-(4-(5-fluoro-3-(2-fluoro-4-(2-hydroxypropan-2-yl)benzamido)-2-methylphenyl)-7H-pyrrolo[2,3-d]pyrimidin-6-yl)benzyl)amino)pentyl)-N,4-dimethylbenzamide]
5 | 0.81 | 2.8 | Cc1ccc(C(=O)N2CCC3(CCN(Cc4ccc(-c5cc6c(-c7cc(F)cc(NC(=O)c8ccc(C(C)(C)O)cc8F)c7C)ncnc6[nH]5)cc4)CC3)CC2)cc1N1CCC(=O)NC1=O [Compound 27, N-(3-(6-(4-((9-(3-(2,4-Dioxotetrahydropyrimidin-1(2H)-yl)-4-methylbenzoyl)-3,9-diazaspiro[5.5]undecan-3-yl)methyl)phenyl)-7H-pyrrolo[2,3-d]pyrimidin-4-yl)-5-fluoro-2-methylphenyl)-2-fluoro-4-(2-hydroxypropan-2-yl)benzamide]
6 | 0.57 | 2.5 | Cc1ccc(C(=O)N2CCC3(CCN(CCc4ccc(-c5cc6c(-c7cc(F)cc(NC(=O)c8ccc(C(C)(C)O)cc8F)c7C)ncnc6[nH]5)cc4)CC3)CC2)cc1N1CCC(=O)NC1=O [Compound 5, N-(3-(6-(4-(2-(9-(3-(2,4-Dioxotetrahydropyrimidin-1(2H)-yl)-4-methylbenzoyl)-3,9-diazaspiro[5.5]undecan-3-yl)ethyl)phenyl)-7H-pyrrolo[2,3-d]pyrimidin-4-yl)-5-fluoro-2-methylphenyl)-2-fluoro-4-(2-hydroxypropan-2-yl)benzamide]
7 | 0.68 | 2.4 | COc1ccc(C(=O)N2CCC3(CC2)CCN(C(C)(C)Cc2ccc(-c4cc5c(-c6cc(F)cc(NC(=O)c7ccc(C(C)(C)O)cc7F)c6C)ncnc5[nH]4)cc2)CC3)cc1N1CCC(=O)NC1=O [Compound 20, N-(3-(6-(4-(2-(9-(3-(2,4-Dioxotetrahydropyrimidin-1(2H)-yl)-4-methoxybenzoyl)-3,9-diazaspiro[5.5]undecan-3-yl)-2-methylpropyl)phenyl)-7H-pyrrolo[2,3-d]pyrimidin-4-yl)-5-fluoro-2-methylphenyl)-2-fluoro-4-(2-hydroxypropan-2-yl)benzamide]
8 | 1.94 | 1.6 | COc1ccc(C(=O)N2CCC(OC3CCN(CCc4ccc(-c5cc6c(-c7cc(F)cc(NC(=O)c8ccc(C(C)(C)O)cc8F)c7C)ncnc6[nH]5)cc4)CC3)CC2)cc1N1CCC(=O)NC1=O [Compound 34, N-(3-(6-(4-(2-(4-((1-(3-(2,4-Dioxotetrahydropyrimidin-1(2H)-yl)-4-methoxybenzoyl)piperidin-4-yl)oxyl)piperidin-1-yl)ethyl)phenyl)-7H-pyrrolo[2,3-d]pyrimidin-4-yl)-5-fluoro-2-methylphenyl)-2-fluoro-4-(2-hydroxypropan-2-yl)benzamide]
9 | 0.72 | 2.1 | Cc1c(NC(=O)c2ccc(C(C)(C)O)cc2F)cc(F)cc1-c1ncnc2[nH]c(-c3ccc(COC4CCN(CCC5CCN(C(=O)c6ccc(F)c(N7CCC(=O)NC7=O)c6)CC5)CC4)cc3)cc12 [Compound 6, N-(3-(6-(4-(((1-(2(1-(3-(2,4-dioxotetrahydropyrimidin-1(2H)-yl)-4-fluorobenzoyl)piperidin-4-yl)ethyl)piperidin-4-yl)oxyl)methyl)phenyl)-7H-pyrrolo[2,3-d]pyrimidin-4-yl)-5-fluoro-2-methylphenyl)-2-fluoro-4-(2-hydroxypropan-2-yl)benzamide]
10 | 2.08 | 2.7 | COc1ccc(C(=O)N2CCC(OC3CCN(Cc4ccc(-c5cc6c(-c7cc(F)cc(NC(=O)c8ccc(C(C)(C)O)cc8F)c7C)ncnc6[nH]5)cc4)CC3)CC2)cc1N1CCC(=O)NC1=O [Compound 8, N-(3-(6-(4-((4-((1-(3-(2,4-dioxotetrahydropyrimidin-1(2H)-yl)-4-methoxybenzoyl)piperidin-4-yl)oxyl)piperidin-1-yl)methyl)phenyl)-7H-pyrrolo[2,3-d]pyrimidin-4-yl)-5-fluoro-2-methylphenyl)-2-fluoro-4-(2-hydroxypropan-2-yl)benzamide]
11 | 2.47 | 4.5 | COc1ccc(C(=O)N2CCN(C(=O)N3CCN(Cc4ccc(-c5cc6c(-c7cc(F)cc(NC(=O)c8ccc(C(C)(C)O)cc8F)c7C)ncnc6[nH]5)cc4)CC3)CC2)cc1N1CCC(=O)NC1=O [Compound 22, N-(3-(6-(4-((4-(4-(3-(2,4-Dioxotetrahydropyrimidin-1(2H)-yl)-4-methoxybenzoyl)piperazine-1-carbonyl)piperazin-1-yl)methyl)phenyl)-7H-pyrrolo[2,3-d]pyrimidin-4-yl)-5-fluoro-2-methylphenyl)-2-fluoro-4-(2-hydroxypropan-2-yl)benzamide]
